ChEMBL document CHEMBL6103591, “Discovery of naphthoquinone-furo-piperidone derivatives as dual targeting agents of STAT3 and NQO1 for the treatment of breast cancer” (Eur J Med Chem, 2025)
Calls of active or inactive are those of the source. No cut-off for these calls is given here.

What was measured:
[1] = tested on: MCF7; experiment: Induction of DNA damage in human MCF7 cells at 1.25 uM incubated for 24 hrs by fluorescence microscopy based alkaline comet assay; format: functional, cell-based
[2] = molecular target: T1, Signal transducer and activator of transcription 3 (Homo sapiens, UniProt P40763); experiment: Inhibition of phosphorylated STAT3 nuclear translocation in human MDA-MB-231 cells incubated for 6 hrs by immunofluorescence assay; format: cell-based; conditions: dose 1.5-3 µM
[3] = tested on: MDA-MB-231; experiment: Antimetastatic activity against human MDA-MB-231 cells assessed as reduction in cell invasion incubated for 24 hrs by crystal violet staining based transwell invasion assay; format: functional; conditions: dose 0.1875-3 µM
[4] = molecular target: T1, Signal transducer and activator of transcription 3; experiment: Inhibition of STAT3 in human MDA-MB-231 cells assessed as downregulation of c-Myc expression measured after 24 hrs by Western blot analysis; format: cell-based; conditions: dose 0.6-2.5 µM
[5] = tested on: MCF7; experiment: Induction of ROS generation in NQO1-rich human MCF7 cells assessed as increase in intracellular ROS level at 1.25 uM in presence of DIC by DCFH-DA staining based confocal microscopic analysis; format: functional, cell-based
[6] = tested on: MDA-MB-231; experiment: Antitumor activity against human MDA-MB-231 cells xenografted in female BALB/c nude mouse assessed as increase in TUNEL-positive cells in tumor tissue at 10 mg/kg, ip administered daily and measured every 2 days for 21 days by immunofluorescence analysis; format: functional, organism-based; conditions: time 21.0 day
[7] = tested on: MDA-MB-231; experiment: Effect on STAT1 expression level in human MDA-MB-231 cells at 0.6 to 2.5 uM incubated for 24 hrs by Western blot analysis; format: functional, cell-based; conditions: dose 0.6-2.5 µM
[8] = tested on: MDA-MB-231; experiment: Induction of apoptosis in human MDA-MB-231 cells assessed as increase in cleaved PARP level at 1.5 to 3 uM by Western blotting analysis; format: functional, cell-based; conditions: dose 1.5-3 µM
[9] = tested on: MDA-MB-231; experiment: Effect on STAT5 expression level in human MDA-MB-231 cells at 0.6 to 2.5 uM incubated for 24 hrs by Western blot analysis; format: functional, cell-based; conditions: dose 0.6-2.5 µM
[10] = tested on: MDA-MB-231; experiment: Antitumor activity against human MDA-MB-231 cells xenografted in female BALB/c nude mouse assessed as reduction in tumor volume at 10 mg/kg, ip administered daily and measured every 2 days for 21 days; format: functional, organism-based; conditions: time 21.0 day
[11] = molecular target: T1, Signal transducer and activator of transcription 3; experiment: Inhibition of STAT3 in human MDA-MB-231 cells assessed as downregulation of survivin expression measured after 24 hrs by Western blot analysis; format: cell-based; conditions: dose 0.6-2.5 µM
[12] = tested on: MDA-MB-468; experiment: Inhibition of colony formation in human MDA-MB-468 cells at 3 uM incubated for 10 to 15 days by crystal violet staining based microscopic analysis; format: functional, cell-based; conditions: time 10-15 day
[13] = tested on: MDA-MB-468; experiment: Antiproliferative activity against human MDA-MB-468 cells transfected with shSTAT3 RNA at 1.5 uM incubated for 24 hrs by MTT assay; format: functional, cell-based
[14] = tested on: MDA-MB-231; experiment: Induction of apoptosis in human MDA-MB-231 cells assessed as increase in cleaved-caspase 3 level at 1.5 to 3 uM by Western blotting analysis; format: functional, cell-based; conditions: dose 1.5-3 µM
[15] = molecular target: T1, Signal transducer and activator of transcription 3; experiment: Inhibition of phosphorylated STAT3 nuclear translocation in human MDA-MB-468 cells incubated for 6 hrs by immunofluorescence assay; format: cell-based; conditions: dose 1.5-3 µM
[16] = tested on: MCF7; experiment: Induction of DNA damage in human MCF7 cells at 1.25 uM incubated for 24 hrs in presence of DIC by fluorescence microscopy based alkaline comet assay; format: functional, cell-based
[17] = tested on: MDA-MB-231; experiment: Induction of apoptosis in human MDA-MB-231 cells assessed as increase in Bax level at 1.5 to 3 uM by Western blotting analysis; format: functional, cell-based; conditions: dose 1.5-3 µM
[18] = tested on: MCF7; experiment: Induction of ROS generation in NQO1-rich human MCF7 cells assessed as increase in intracellular ROS level by DCFH-DA staining based confocal microscopic analysis; format: functional, cell-based; conditions: dose 1.25-2.5 µM
[19] = tested on: MDA-MB-468; experiment: Induction of apoptosis in human MDA-MB-468 cells assessed as increase in cleaved-caspase 3 level at 1.5 to 3 uM by Western blotting analysis; format: functional, cell-based; conditions: dose 1.5-3 µM
[20] = molecular target: T1, Signal transducer and activator of transcription 3; experiment: Inhibition of STAT3 in human MDA-MB-231 cells assessed as downregulation of Cyclin-D1 expression measured after 24 hrs by Western blot analysis; format: cell-based; conditions: dose 0.6-2.5 µM
[21] = tested on: MDA-MB-231; experiment: Antimetastatic activity against human MDA-MB-231 cells assessed as reduction in cell migration incubated for 24 hrs by crystal violet staining based transwell assay; format: functional; conditions: dose 0.1875-3 µM
[22] = tested on: MDA-MB-231; experiment: Antitumor activity against human MDA-MB-231 cells xenografted in female BALB/c nude mouse assessed as reduction in tumor weight at 10 mg/kg, ip administered daily and measured every 2 days for 21 days; format: functional, organism-based; conditions: time 21.0 day
[23] = tested on: Mus musculus; experiment: In vivo inhibition of STAT3 in female BALB/c nude mouse xenografted with human MDA-MB-231 cells assessed as decrease in p-STAT3 level in tumor tissue at 10 mg/kg, ip administered daily and measured every 2 days for 21 days by IHC staining analysis; format: functional, organism-based; conditions: time 21.0 day
[24] = molecular target: T1, Signal transducer and activator of transcription 3; experiment: Inhibition of STAT3 activation in human MDA-MB-231 cells assessed as reduction in STAT3 phosphorylation at Tyr705 residue at 1 uM measured after 24 hrs by Western blot analysis relative to control; format: cell-based
[25] = tested on: MDA-MB-231; experiment: Inhibition of STAT5 phosphorylation at Tyr694 residue in human MDA-MB-231 cells at 0.6 to 2.5 uM incubated for 24 hrs by Western blot analysis; format: cell-based; conditions: dose 0.6-2.5 µM
[26] = tested on: MDA-MB-231; experiment: Antiproliferative activity against human MDA-MB-231 cells transfected with shSTAT3 RNA at 1.5 uM incubated for 24 hrs by MTT assay; format: functional, cell-based
[27] = tested on: MDA-MB-468; experiment: Induction of apoptosis in human MDA-MB-468 cells assessed as increase in cleaved PARP level at 1.5 to 3 uM by Western blotting analysis; format: functional, cell-based; conditions: dose 1.5-3 µM, time 24.0 hrs
[28] = tested on: MDA-MB-468; experiment: Induction of apoptosis in human MDA-MB-468 cells assessed as increase in Bax level at 1.5 to 3 uM by Western blotting analysis; format: functional, cell-based; conditions: dose 1.5-3 µM
[29] = tested on: MDA-MB-231; experiment: Inhibition of colony formation in human MDA-MB-231 cells at 3 uM incubated for 10 to 15 days by crystal violet staining based microscopic analysis; format: functional, cell-based; conditions: time 10-15 day
[30] = molecular target: T2, Signal transducer and activator of transcription 1-alpha/beta (Homo sapiens) (UniProt P42224); experiment: Inhibition of STAT1 phosphorylation at Tyr701 residue in human MDA-MB-231 cells at 0.6 to 2.5 uM incubated for 24 hrs by Western blot analysis; format: cell-based; conditions: dose 0.6-2.5 µM
T2 sequence (whole entry): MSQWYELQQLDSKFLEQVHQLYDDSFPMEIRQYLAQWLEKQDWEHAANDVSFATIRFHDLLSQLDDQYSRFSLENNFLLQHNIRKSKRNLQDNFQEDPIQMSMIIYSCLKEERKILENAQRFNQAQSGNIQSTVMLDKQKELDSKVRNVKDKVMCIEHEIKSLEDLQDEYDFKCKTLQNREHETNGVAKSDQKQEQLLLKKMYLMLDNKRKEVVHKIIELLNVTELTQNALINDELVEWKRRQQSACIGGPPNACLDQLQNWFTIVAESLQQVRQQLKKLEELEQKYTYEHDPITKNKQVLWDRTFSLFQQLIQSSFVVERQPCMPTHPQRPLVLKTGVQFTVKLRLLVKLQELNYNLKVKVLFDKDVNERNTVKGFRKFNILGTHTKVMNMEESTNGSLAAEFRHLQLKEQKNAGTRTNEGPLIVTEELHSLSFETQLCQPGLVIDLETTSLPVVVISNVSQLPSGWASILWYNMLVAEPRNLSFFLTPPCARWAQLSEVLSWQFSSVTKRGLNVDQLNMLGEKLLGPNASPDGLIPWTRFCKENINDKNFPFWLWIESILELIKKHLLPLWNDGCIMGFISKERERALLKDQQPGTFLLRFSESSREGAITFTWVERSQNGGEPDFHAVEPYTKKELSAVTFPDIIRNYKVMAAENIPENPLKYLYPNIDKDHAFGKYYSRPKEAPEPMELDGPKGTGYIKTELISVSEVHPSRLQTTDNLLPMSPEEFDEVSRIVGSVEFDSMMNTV

T1 sequence (P40763 whole entry): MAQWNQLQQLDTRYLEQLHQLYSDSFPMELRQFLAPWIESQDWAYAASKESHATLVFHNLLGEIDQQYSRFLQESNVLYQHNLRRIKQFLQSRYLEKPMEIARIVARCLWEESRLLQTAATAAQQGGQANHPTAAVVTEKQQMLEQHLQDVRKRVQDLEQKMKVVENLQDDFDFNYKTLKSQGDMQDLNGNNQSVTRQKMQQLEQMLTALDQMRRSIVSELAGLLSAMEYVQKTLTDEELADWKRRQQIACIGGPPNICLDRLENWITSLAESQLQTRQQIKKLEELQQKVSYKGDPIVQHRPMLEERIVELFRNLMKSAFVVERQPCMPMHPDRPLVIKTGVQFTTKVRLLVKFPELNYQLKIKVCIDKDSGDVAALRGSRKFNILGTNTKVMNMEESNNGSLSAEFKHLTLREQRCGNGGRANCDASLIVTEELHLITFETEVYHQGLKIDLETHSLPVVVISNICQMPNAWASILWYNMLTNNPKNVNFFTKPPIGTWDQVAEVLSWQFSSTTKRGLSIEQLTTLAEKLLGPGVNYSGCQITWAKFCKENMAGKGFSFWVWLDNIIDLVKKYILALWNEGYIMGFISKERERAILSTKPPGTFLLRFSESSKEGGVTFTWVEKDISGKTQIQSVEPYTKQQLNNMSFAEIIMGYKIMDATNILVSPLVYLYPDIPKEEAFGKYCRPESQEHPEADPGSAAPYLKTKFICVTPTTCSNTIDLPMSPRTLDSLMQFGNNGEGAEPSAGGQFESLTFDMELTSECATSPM

inhibition [2]: Dose-dependent-effect | inhibition [4]: Dose-dependent-effect | inhibition [15]: Dose-dependent-effect | inhibition [20]: Dose-dependent-effect | inhibition [24]: Active | inhibition [30]: inactive
Compound: O=C1C(=O)c2c(oc3c2CCN(CCN2CCCCC2)C3=O)-c2ccccc21
Activity [1]: Active | Activity [3]: Dose-dependent-effect | Activity [5]: inactive | Activity [6]: Active | Activity [7]: inactive | Activity [8]: Active | Activity [9]: inactive | Activity [10]: Active | inhibition [11]: Dose-dependent-effect | inhibition [12]: Active | Activity [13]: Active; Less Sensitivity Observed | Activity [14]: Active | Activity [16]: inactive | Activity [17]: Active | Activity [18]: Dose-dependent-effect | Activity [19]: Active | Activity [21]: Dose-dependent-effect | Activity [22]: Active | inhibition [23]: Active | inhibition [25]: inactive | Activity [26]: Active; Less Sensitivity Observed | Activity [27]: Active | Activity [28]: Active | inhibition [29]: Active
